Measured values: article PMC6464118 (European journal of medicinal chemistry, 2019)

Assays:
[1] = test system: HIV-1 NL4-3 Nanoluc-sec virus; format: cell-based; settings: for TI: CC50/EC50: CC50 (MT4) / EC50 (NL4-3); for anti-HIV activity in words: HIV-1 NL4-3 replication in MT4 cells
[2] = test system: bevirimat-resistant HIV viruses NL4-3-V370A; assay: Activity against bevirimat-resistant HIV virus NL4-3-V370A; format: cell-based

Row | Structure (SMILES) | TI: CC50/EC50 [1] | anti-HIV activity in words [1] | other results
1 | CC(=O)O[C@H]1[C@@H](OC(C)=O)[C@@]2(C)[C@@H]3CC[C@H]4C(C)(C)[C@@H](OC(=O)CCC(=O)O)CC[C@@]45C[C@@]35CC[C@@]23CO[C@@]2(C(C)(C)O)CC[C@](C)(O2)[C@@H]13 [Compound 13e, (20S,24S)-15β,16β-Diacetoxy-18,24;20,24-diepoxy-9,19-cyclolanostane-3β,25-diol 3-O-succinate] | > 5.2 |  | 
2 | CC(=O)O[C@H]1[C@@H](O)[C@@]2(C)[C@@H]3CC[C@H]4C(C)(C)[C@@H](O[C@@H]5OC[C@@H](O)[C@H](O)[C@H]5O)CC[C@@]45C[C@@]35CC[C@@]23CO[C@@]2(C(C)(C)O)CC[C@](C)(O2)[C@@H]13 [Compound 2, beesioside K] | > 8.6 |  | 
3 | CC(=O)O[C@H]1[C@H](O)[C@H]([C@]2(C)CC[C@@H](C(C)(C)O)O2)[C@@]2(C)CC[C@@]34C[C@@]35CC[C@H](O[C@@H]3OC[C@@H](O)[C@H](O)[C@H]3O)C(C)(C)[C@@H]5CC[C@H]4[C@]12C [Compound 4, beesioside M] | > 8.2 |  | 
4 | CC(C)(O)[C@@H]1CC[C@@](C)([C@H]2[C@@H](O)[C@H](O)[C@@]3(C)[C@@H]4[C@@H](O)C[C@H]5C(C)(C)[C@@H](O[C@@H]6OC[C@@H](O)[C@H](O)[C@H]6O)CC[C@@]56C[C@@]46CC[C@]23C)O1 [Compound 5, soulieoside N] |  | inactive | 
5 | CC(=O)O[C@H]1[C@@H](OC(C)=O)[C@@]2(C)[C@@H]3CC[C@H]4C(C)(C)[C@@H](O[C@@H]5OC[C@@H](O)[C@H](O)[C@H]5O)CC[C@@]45C[C@@]35CC[C@@]23CO[C@@]2(C(C)(C)O)CC[C@](C)(O2)[C@@H]13 [Compound 1, beesioside I] | > 17.2 |  | 
6 | CC(=O)O[C@H]1[C@@H](OC(C)=O)[C@@]2(C)[C@@H]3CC[C@H]4C(C)(C)[C@@H](OC(=O)COCC(=O)O)CC[C@@]45C[C@@]35CC[C@@]23CO[C@@]2(C(C)(C)O)CC[C@](C)(O2)[C@@H]13 [Compound 13m, (20S,24S)-15β, 16β-Diacetoxy-18,24;20,24-diepoxy-9,19-cyclolanostane-3β,25-diol 3-O-diglycolate] | > 41.7 |  | 
7 | CC1(C)[C@@H](O[C@@H]2OC[C@@H](O)[C@H](O)[C@H]2O)CC[C@]23C[C@]24CC[C@]25CO[C@@]6(C(C)(C)O)CC[C@](C)(O6)[C@H]2[C@@H](O)[C@@H](O)[C@@]5(C)[C@@H]4CC[C@@H]13 [Compound 1a, (20S,24S)-18,24;20,24-Diepoxy-9,19-cyclolanostane-3β, 15β, 16β,25-tetraol 3-O-β-D-xylopyrano-side] | > 5.2 | less potent | 
8 | CC(=O)O[C@H]1[C@@H]2O[C@@]3(C(C)(C)O)CC[C@](C)(O3)[C@@H]2[C@@]2(CO)CC[C@@]34C[C@@]35CC[C@H](O[C@@H]3OC[C@@H](O)[C@H](O)[C@H]3O)C(C)(C)[C@@H]5CC[C@H]4[C@]12C [Compound 9, (20S,24S)-15α-acetoxy-16β,24;20,24-diepoxy-3β-(β-D-xylopyranosyloxy)-9,19-cyclolanostane-18,25-diol] |  | inactive | 
9 | CC(=O)O[C@H]1[C@@H](OC(C)=O)[C@@]2(C)[C@@H]3CC[C@H]4C(C)(C)[C@@H](OC(C)=O)CC[C@@]45C[C@@]35CC[C@@]23CO[C@@]2(C(C)(C)O)CC[C@](C)(O2)[C@@H]13 [Compound 13a, (20S, 24S)-15β, 16β-Diacetoxy-18,24;20,24-diepoxy-9,19-cyclolanostane-25-hydroxy-3β-yl acetate] | > 16.4 |  | 
10 | CC(=O)O[C@H]1[C@@H](OC(C)=O)[C@@]2(C)[C@@H]3CC[C@H]4C(C)(C)[C@@H](O[C@@H]5OC[C@@H](O)[C@H](O)[C@H]5O)CC[C@@]45C[C@@]35CC[C@@]23CO[C@@](C)(CCC(=O)C(C)(C)O)[C@@H]13 [Compound 12, soulieoside P] |  | inactive | 
11 | CC(=O)O[C@H]1[C@@H](OC(C)=O)[C@@]2(C)[C@@H]3CC[C@H]4C(C)(C)[C@@H](OC(=O)CC5(CC(=O)O)CCCC5)CC[C@@]45C[C@@]35CC[C@@]23CO[C@@]2(C(C)(C)O)CC[C@](C)(O2)[C@@H]13 [Compound 13l, (20S,24S)-15β,16β-Diacetoxy-18,24;20,24-diepoxy-9,19-cyclolanostane-3β,25-diol 3-O-3′,3′-tetramethyleneglutarate] | > 12.6 |  | 
12 | CC(=O)O[C@H]1[C@H](O)[C@@]2(C)[C@@H]3CC[C@H]4C(C)(C)[C@@H](O[C@@H]5OC[C@@H](O)[C@H](O)[C@H]5O)CC[C@@]45C[C@@]35CC[C@@]23CO[C@@](C)(CCC(=O)C(C)(C)O)[C@@H]13 [Compound 11, soulieoside O] |  | inactive | 
13 | CC(=O)O[C@H]1[C@@H](OC(C)=O)[C@@]2(C)[C@@H]3CC[C@H]4C(C)(C)[C@@H](OC(=O)CC(C)C(=O)O)CC[C@@]45C[C@@]35CC[C@@]23CO[C@@]2(C(C)(C)O)CC[C@](C)(O2)[C@@H]13 (stereo partly drawn) [Compound 13f, (RS-3′-20S, 24S)-15β,16β-Diacetoxy-18,24;20,24-diepoxy-9,19-cyclolanostane-3β, 25-diol 3-O-3′-methylsuccinate] | > 18.0 |  | 
14 | CC1(C)[C@@H](O)CC[C@]23C[C@]24CC[C@]25CO[C@@]6(C(C)(C)O)CC[C@](C)(O6)[C@H]2[C@@H](O)[C@@H](O)[C@@]5(C)[C@@H]4CC[C@@H]13 [Compound 13d, (20S, 24S)-18,24;20,24-Diepoxy-9,19-cyclolanostane-3β, 15β, 16β, 25-tetraol] |  | inactive | 
15 | CC(=O)O[C@H]1[C@@H](OC(C)=O)[C@@]2(C)[C@@H]3CC[C@H]4C(C)(C)[C@@H](OC(=O)CCC(C)(C)C(=O)O)CC[C@@]45C[C@@]35CC[C@@]23CO[C@@]2(C(C)(C)O)CC[C@](C)(O2)[C@@H]13 [Compound 13j, (20S, 24S)-15β,16β-Diacetoxy-18,24;20,24-diepoxy-9,19-cyclolanostane-3β, 25-diol 3-O-4',4'-dimethylglutarate] | > 104 |  | 
16 | CC(=O)O[C@H]1[C@@H](OC(C)=O)[C@@]2(C)[C@@H]3CC[C@H]4C(C)(C)[C@@H](OC(=O)CC(C)(C)C(=O)O)CC[C@@]45C[C@@]35CC[C@@]23CO[C@@]2(C(C)(C)O)CC[C@](C)(O2)[C@@H]13 [Compound 13g, (20S, 24S)-15β,16β-Diacetoxy-18,24;20,24-diepoxy-9,19-cyclolanostane-3β, 25-diol 3-O-3′,3′-dimethylsuccinate] |  |  | activity against bevirimat-resistant HIV viruses NL4-3-V370A [2]: no significant effects; fold more potent than 1 (anti-HIV activity) ([1]; relative to compound 1): approximately 100 fold
17 | CC(=O)O[C@H]1[C@@H](OC(C)=O)[C@@]2(C)[C@@H]3CC[C@H]4C(C)(C)[C@@H](O)CC[C@@]45C[C@@]35CC[C@@]23CO[C@@]2(C(C)(C)O)CC[C@](C)(O2)[C@@H]13 [Compound 13, (20S,24S)-15β, 16β-Diacetoxy-18,24;20,24-diepoxy-9,19-cyclolanostane-3β,25-diol] |  | inactive | 
